# Assay results taken from paper PMC8920929 (The Journal of Biological Chemistry, 2022).
# Positions count from the first letter of the chain named.
# Legend:
# [1] = tested on: TRPV3; details: read-out: EC50, activation of TRPV3; ref [23], [30]; cited from earlier work
# [2] = target: T1, TRPV3-L508A (Homo sapiens, UniProt Q8NET8, L508A); experiment: Whole-cell and single-channel recordings of the TRPV3-L508A mutant; type: cell-based; details: carvacrol 0.3-3.0 mM or 50 μM 2-APB
# T1 sequence (Q8NET8 1-790 L508A): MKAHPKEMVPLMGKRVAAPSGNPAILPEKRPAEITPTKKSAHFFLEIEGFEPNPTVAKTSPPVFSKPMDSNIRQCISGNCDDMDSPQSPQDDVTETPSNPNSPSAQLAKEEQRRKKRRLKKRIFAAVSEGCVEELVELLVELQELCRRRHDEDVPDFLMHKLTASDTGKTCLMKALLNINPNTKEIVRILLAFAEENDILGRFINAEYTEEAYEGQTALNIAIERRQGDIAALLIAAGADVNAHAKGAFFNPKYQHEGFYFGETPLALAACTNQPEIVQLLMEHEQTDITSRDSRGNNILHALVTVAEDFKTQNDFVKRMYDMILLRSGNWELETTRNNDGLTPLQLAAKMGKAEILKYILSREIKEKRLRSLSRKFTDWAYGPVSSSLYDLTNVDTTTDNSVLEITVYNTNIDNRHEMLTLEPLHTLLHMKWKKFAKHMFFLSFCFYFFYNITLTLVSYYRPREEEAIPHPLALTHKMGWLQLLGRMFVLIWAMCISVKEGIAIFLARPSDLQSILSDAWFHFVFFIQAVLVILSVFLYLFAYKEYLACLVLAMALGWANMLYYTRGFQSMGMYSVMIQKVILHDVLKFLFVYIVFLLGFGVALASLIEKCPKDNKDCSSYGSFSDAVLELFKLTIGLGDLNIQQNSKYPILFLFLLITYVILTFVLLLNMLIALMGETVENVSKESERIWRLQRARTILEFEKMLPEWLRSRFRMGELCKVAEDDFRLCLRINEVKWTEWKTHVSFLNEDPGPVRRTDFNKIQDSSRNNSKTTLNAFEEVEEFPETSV
# [3] = target: T2, TRPV3-R509A (Homo sapiens, UniProt Q8NET8, R509A); experiment: Whole-cell and single-channel recordings of the TRPV3-R509A mutant; type: cell-based
# T2 sequence (Q8NET8 1-790 R509A): T1 sequence (Q8NET8 1-790 L508A) with A508L, R509A
# [4] = target: T3, human TRPV3 (Homo sapiens, UniProt Q8NET8); experiment: Inside-out single channel recordings of TRPV3; type: biochemical
# T3 sequence (Q8NET8 1-790): T1 sequence (Q8NET8 1-790 L508A) with A508L
# [5] = +80 mV, carvacrol 300 μM or 2-APB 50 μM alone
compound,measurement,setting,value
"Cc1ccc(C(C)C)cc1O [carvacrol, 5-Isopropyl-2-methylphenol]",EC50,[1],497 ± 70 µM
same,activation of TRPV3 L508A mutant channel,[2],loss of the mutant channel activation
same,EC50,[3],2930 ± 110 µM
same,right shift of channel activation versus WT TRPV3,[3]; R509A versus WT,over 10 fold
same,sensitivity of TRPV3 R509A mutant channel,[3]; macroscopic and single-channel current levels,decreased the channel sensitivity
same,single-channel open frequency (Freq),[4]; [5],59.21 ± 11.32 Hz
same,single-channel open probability (Po),[4]; [5],0.72 ± 0.05
same,unitary conductance of TRPV3 single channels,"[4]; inside-out patches, -80 mV to +80 mV, carvacrol 300 μM, 2-APB 50 μM, n = 4",182.0 ± 6.4 pS
